{
  "source": "patent US20230027192A1",
  "about": "“METHODS OF USING SOLUBLE SOLID DISPERSIONS OF RIFAXIMIN” (United States Government as Represented by the Department …, priority 2019, published 2023)",
  "origin": "cited, not measured here",
  "key": {"[1]": {"test_system": "secondary/primary bile acid ratio", "details": "patients with compensated cirrhosis"}, "[2]": {"test_system": "hepatic encephalopathy (HE)", "details": "in cirrhosis"}},
  "data": [
    {"smiles": "CO[C@H]1/C=C/O[C@@]2(C)Oc3c(C)c(O)c4c(O)c(c5c(nc6cc(C)ccn65)c4c3C2=O)NC(=O)/C(C)=C\\C=C\\[C@H](C)[C@H](O)[C@@H](C)[C@@H](O)[C@@H](C)[C@H](OC(C)=O)[C@@H]1C", "note": "[rifaximin]", "values": [
      {"measurement": "secondary/primary bile acid ratio", "setting": "[1]", "result": "reduction"},
      {"measurement": "risk of HE recurrence and HE-related hospitalizations", "setting": "[2]", "result": "reduces the risk"}
    ]}
  ]
}
